Measurements as given in patent publication US11261201B2 (priority 2018, dated 2022).
Values after ≈ are worked out from the molar mass of the structure shown. Where a name gives a salt, the structure may show the parent alone. Read-outs that look alike come from different tables or passages of the source.

Key:
H37RvMA = test: Tuberculosis Alamar Blue/Resazurin assay (MIC); format: cell-based; conditions: read-out: WT H37Rv MTB Activity
A. baumannii = test: Gram negative MIC protocol (OD600, LB, 24 h); conditions: for MIC: Acinetobacter baumannii
Protocol: (§1) Overnight bacterial cultures were grown in LB with no added antibiotics at 37° C. with shaking. A 1:1000 dilution of these cultures into LB was exposed to concentration gradients of compounds in 96-well plates (100 μL per well assay volume). Resulting plates were incubated at 37° C. for 24 h without shaking, and OD600 was measured at the end of the incubation. MICs were determined as the lowest concentrations at which OD600 remained at baseline.

E. coli = test: Gram negative MIC protocol (OD600, LB, 24 h); conditions: for MIC: Escherichia coli
Protocol: as §1

[1] = Mycobacterium tuberculosis, H37RV, WT H37Rv MTB
[2] = read-out: MIC A. baumannii LB Media, A. baumannii, LB media, 24 h, OD600
[3] = read-out: MIC E. coli delta-TolC LB Media, E. coli delta-TolC, LB media, OD600
[4] = read-out: MIC WT E. coli LB Media, WT E. coli, LB media, OD600
[5] = Mycobacterium tuberculosis, H37RV
[6] = read-out: MIC A. baumannii LB Media
[7] = read-out: MIC E. coli delta-TolC LB Media, E. coli delta-TolC strain, LB media, 24 h, OD600
[8] = read-out: MIC WT E. coli LB Media, wild-type E. coli, LB media, 24 h, OD600

| Compound | MIC (H37RvMA; [1]) [µM] | MIC (A. baumannii; [2]) [µM] | MIC (E. coli; [3]) [µM] | MIC (E. coli; [4]) [µM] | MIC (E. coli; [7]) [µM] | MIC (E. coli; [8]) [µM] | other results |
| --- | --- | --- | --- | --- | --- | --- | --- |
| CNS(=O)(=O)Cc1ccccc1CNC(C)CC1CCCCC1 (stereo not shown) [B445, 1-(2-(((1-cyclohexylpropan-2-yl)amino)methyl)phenyl)-N-methylmethanesulfonamide] | > 150 | 150 (≈ 50.8 µg/mL) | 4 (≈ 1.35 µg/mL) | 55 (≈ 18.6 µg/mL) | – | – | – |
| OC[C@@H](Cc1ccccc1)NCc1ccccc1 [B173] | > 150 | > 300 | > 300 | > 300 | – | – | – |
| CC(CC1CCCCC1)NCc1ccccc1CCC(=O)O (stereo not shown) [B401, 3-(2-((1-cyclohexylpropan-2-ylamino)methyl)phenyl)propanoic acid trifluoroacetate] | – | – | 33 | > 150 | – | – | MIC (H37RvMA; [5]): > 150 µM; MIC (A. baumannii; [6]): > 150 µM |
| O=C(O)C(CC1CCCCC1)NCc1ccccc1 (stereo not shown) [B204, 2-(benzylamino)-3-cyclohexylpropanoic acid] | – | > 300 | – | – | > 300 | > 300 | MIC (H37RvMA; WT H37Rv MTB): >150 µM |
| C[C@@H](CC1CCCCC1)NCc1ccccc1 [B94] | – | – | 7 (≈ 1.62 µg/mL) | 17 (≈ 3.93 µg/mL) | – | – | MIC (H37RvMA; [5]): > 150 µM; MIC (A. baumannii; [6]): 91 µM (≈ 21.1 µg/mL) |
| c1ccc(CNC2(C3CC3)CC2)cc1 [B32] | > 150 | > 150 | > 150 | > 150 | – | – | – |
| FC(F)(F)c1ccc(CC2(NCc3ccccc3)CC2)cc1 [B96] | – | > 150 | 90 (≈ 27.5 µg/mL) | > 150 | – | – | MIC (H37RvMA; [5]): > 150 µM |
| OB(O)Cc1ccccc1CNCCC1CCCCC1 [B376, 2-((2-cyclohexylethylamino)methyl)benzylboronic acid] | > 150 | > 150 | – | – | 91 (≈ 25 µg/mL) | 150 (≈ 41.3 µg/mL) | – |
| CC(C)(Cc1ccc(C(F)(F)F)cc1)NCc1ccccc1 [B93] | – | – | > 150 | > 150 | – | – | MIC (H37RvMA; [5]): > 150 µM; MIC (A. baumannii; [6]): > 150 µM |
| Cc1ccccc1COc1ccccc1CNC(C)CC1CCCCC1 (stereo not shown) [B384] | 20.2 (≈ 7.1 µg/mL) | 55 (≈ 19.3 µg/mL) | – | – | 4 (≈ 1.41 µg/mL) | 91 (≈ 32 µg/mL) | – |
| CC(CNCc1ccccc1)N1CCc2ccccc2C1 (stereo not shown) [B130] | > 150 | > 150 | > 150 | > 150 | – | – | – |
| Cc1nc(COc2ccccc2CNC(C)CC2CCCCC2)oc1C (stereo not shown) [B246] | 91 (≈ 32.4 µg/mL) | > 150 | – | – | 12 (≈ 4.28 µg/mL) | > 150 | – |
| CC(CC1CCCCC1)NCc1ccccc1CS(=O)(=O)N(C)C[C@H](O)CO (stereo partly drawn) [B438, 1-(2-(((1-cyclohexylpropan-2-yl)amino)methyl)phenyl)-N-((S)-2,3-dihydroxypropyl)-N-methylmethanesulfonamide] | > 150 | > 150 | 7 (≈ 2.89 µg/mL) | 150 (≈ 61.9 µg/mL) | – | – | – |
| CN(C)c1ccccc1CNCCC1CCCCC1 [B237, 2-((2-cyclohexylethylamino)methyl)-N,N-dimethylaniline hydrochloride] | > 150 | > 300 | – | – | 170 | > 300 | – |
| CC(CC1CCCCC1)NCc1ccccc1OCC(=O)N(C)C1CCCCC1 (stereo not shown) [B263] | 91 (≈ 36.5 µg/mL) | > 150 | – | – | 3 (≈ 1.2 µg/mL) | > 150 | – |
| Cl.c1ccc(CNCC2CCCCC2)cc1 [B17] | – | – | – | – | – | – | MIC (H37RvMA; WT H37Rv MTB): >150 µM; MIC A. baumannii LB Media (A. baumannii; A. baumannii, LB media, OD600): >150 µM; MIC E. coli delta-TolC LB Media (E. coli; E. coli delta-TolC, LB media, OD600): >150 µM; MIC WT E. coli LB Media (E. coli; WT E. coli, LB media, OD600): >150 µM |
| COC(=O)C(CC1CCCCC1)NCc1ccccc1 (stereo not shown) [B203, methyl 2-(benzylamino)-3-cyclohexylpropanoate hydrochloride] | > 150 | > 300 | – | – | 170 | > 300 | – |
| C1=Nc2c(cccc2CCNCc2ccccc2)C1 [B48] | – | – | > 150 | > 150 | – | – | MIC (H37RvMA; [5]): 150 µM (≈ 37.6 µg/mL); MIC (A. baumannii; [6]): 150 µM (≈ 37.6 µg/mL) |
| C[C@@H](NCc1ccccc1)C12CC3CC(CC(C3)C1)C2 [B196] | 55 (≈ 14.8 µg/mL) | > 300 | 300 (≈ 80.8 µg/mL) | > 300 | – | – | – |
| CC(CC1CCCCC1)NCc1ccccc1OCCCn1c(=O)[nH]c2ccccc21 (stereo not shown) [B247] | > 150 | 91 (≈ 38.4 µg/mL) | – | – | 2 (≈ 0.843 µg/mL) | 150 (≈ 63.2 µg/mL) | – |
| C[C@H](NCc1ccccc1)[C@@H]1C[C@H]1c1ccccc1 [B86] | > 150 | > 150 | > 150 | > 150 | – | – | – |
| CC(Cc1ccn(C(C)C)n1)NCc1ccccc1 (stereo not shown) [B47] | – | > 150 | > 150 | > 150 | – | – | MIC (H37RvMA; [5]): > 150 µM |
| C1=CC2CCC1CC2CNCc1ccccc1 (stereo not shown) [B122] | 150 (≈ 34.1 µg/mL) | > 150 | > 150 | > 150 | – | – | – |
| COCCNS(=O)(=O)Cc1ccccc1CNC(C)CC1CCCCC1 (stereo not shown) [B434, 1-(2-(((1-cyclohexylpropan-2-yl)amino)methyl)phenyl)-N-(2-methoxyethyl) methanesulfonamide] | > 150 | 150 (≈ 57.4 µg/mL) | 4 (≈ 1.53 µg/mL) | 150 (≈ 57.4 µg/mL) | – | – | – |
| CC(CC1CCCCC1)NCc1ccccc1OC1CC2CCC1(C)C2(C)C (stereo not shown) [B326] | 55 (≈ 21.1 µg/mL) | > 150 | – | – | 12 (≈ 4.6 µg/mL) | > 150 | – |
| FC(F)(F)c1ccccc1CNCCC1CCCCC1 [B225, 2-cyclohexyl-N-(2-(trifluoromethyl)benzyl)ethanamine hydrochloride] | > 150 | 300 | – | – | > 150 | > 300 | – |

| Compound | MIC (H37RvMA; [1]) [µM] | MIC (A. baumannii; [2]) [µM] | MIC (E. coli; [3]) [µM] | MIC (E. coli; [4]) [µM] | MIC (E. coli; [7]) [µM] | MIC (E. coli; [8]) [µM] | other results |
| --- | --- | --- | --- | --- | --- | --- | --- |
| CC(CC1CCCCC1)NCc1ccccc1OCCOCC1CC1 (stereo not shown) [B261] | 150 (≈ 51.8 µg/mL) | > 150 | – | – | 4 (≈ 1.38 µg/mL) | > 150 | – |
| COc1ccc2ccccc2c1CCNCc1ccccc1 [B200] | 91 (≈ 26.5 µg/mL) | 300 (≈ 87.4 µg/mL) | – | – | 170 (≈ 49.5 µg/mL) | > 300 | – |
| O=C(O)c1ccccc1CNCCC1CCCCC1 [B257, 2-((2-cyclohexylethylamino)methyl)benzoic acid hydrochloride] | > 150 | > 150 | – | – | 67 | > 150 | – |
| CC(Cc1ccccc1)NCc1ccccc1 (stereo not shown) [B8] | – | – | > 150 | > 150 | – | – | MIC (H37RvMA; [5]): > 150 µM; MIC (A. baumannii; [6]): > 150 µM |
| Fc1ccc(CNCCC2=CCCCC2)cc1 [B14] | > 150 | > 150 | > 150 | > 150 | – | – | – |
| COCCCCOc1ccccc1CNC(C)CC1CCCCC1 (stereo not shown) [B277] | > 150 | > 150 | – | – | 4 (≈ 1.33 µg/mL) | > 150 | – |
| CC(Cc1cccc(C(F)(F)F)c1)NCc1ccccc1 (stereo not shown) [B81] | – | – | > 150 | > 150 | – | – | MIC (H37RvMA; [5]): > 150 µM; MIC (A. baumannii; [6]): > 150 µM |
| CC(CC1CCCCC1)NCc1ccccc1OCc1ccccn1 (stereo not shown) [B295] | 150 (≈ 50.8 µg/mL) | > 150 | – | – | 4 (≈ 1.35 µg/mL) | > 150 | – |
| OC1CCCCC1CCNCc1ccccc1 (stereo not shown) [B189] | > 150 | > 300 | > 300 | > 300 | – | – | – |
| COc1ccc(C(C)C(C)NCc2ccccc2)cc1 (stereo not shown) [B28] | – | > 150 | > 150 | > 150 | – | – | MIC (H37RvMA; [5]): > 150 µM |
| CCCCCCCCNCc1ccccc1 [B150] | > 150 | > 150 | > 150 | > 150 | – | – | – |
| CC(C)(CN1CCCOCC1)NCc1ccccc1 [B90] | > 150 | > 150 | > 150 | > 150 | – | – | – |
| c1ccc(CNCCN2CC3CCC(C2)O3)cc1 [B64] | – | > 150 | > 150 | > 150 | – | – | MIC (H37RvMA; [5]): > 150 µM |
| CCCCCCNCc1ccccc1 [B6] | > 150 | > 150 | > 150 | > 150 | – | – | – |
| CC(C)(CNCc1ccccc1)C1=CCCCC1 [B72] | > 150 | > 150 | > 150 | > 150 | – | – | – |
| CC(CC1CCCCC1)NCc1ccccc1OC1CCC1 (stereo not shown) [B385, N-(2-cyclobutoxybenzyl)-1-cyclohexylpropan-2-amine] | 90.9 (≈ 27.4 µg/mL) | 150 (≈ 45.2 µg/mL) | – | – | 2 (≈ 0.603 µg/mL) | 91 (≈ 27.4 µg/mL) | – |
| CC1CCC(CC(C)NCc2ccccc2OCc2ccccc2F)CC1 (stereo not shown) [B465, N-(2-((2-fluorobenzyl)oxy)benzyl)-1-(4-methylcyclohexyl)propan-2-amine] | 20 (≈ 7.39 µg/mL) | 90 (≈ 33.3 µg/mL) | 7 (≈ 2.59 µg/mL) | > 150 | – | – | – |
| CC(C)(CN1CCOCC1)NCc1ccccc1 [B67] | > 150 | > 150 | > 150 | > 150 | – | – | – |
| C1=C(CCNCc2ccccc2)CCCCC1 [B71] | 91 (≈ 20.9 µg/mL) | > 150 | 90 (≈ 20.6 µg/mL) | 150 (≈ 34.4 µg/mL) | – | – | – |
| Cc1noc(COc2ccccc2CNC(C)CC2CCCCC2)n1 (stereo not shown) [B278] | > 150 | > 150 | – | – | 12 (≈ 4.12 µg/mL) | > 150 | – |
| c1ccc(CNCC2CCOc3ccccc32)cc1 (stereo not shown) [B23] | > 150 | > 150 | > 150 | > 150 | – | – | – |
| CC(NCc1ccccc1)C1CCCC1 (stereo not shown) [B35] | > 150 | > 150 | > 150 | > 150 | – | – | – |
| OC(CNCc1ccccc1)C1CCCCC1 (stereo not shown) [B172] | – | – | 96 (≈ 22.4 µg/mL) | 170 (≈ 39.7 µg/mL) | – | – | MIC (H37RvMA; [5]): > 150 µM; MIC (A. baumannii; [6]): > 300 µM |
| CC(CC1CCCCC1)NCc1ccccc1CS(C)(=O)=O (stereo not shown) [B424, 1-cyclohexyl-N-(2-((methylsulfonyl)methyl)benzyl)propan-2-amine] | > 150 | 150 (≈ 48.5 µg/mL) | 3 (≈ 0.971 µg/mL) | 33 (≈ 10.7 µg/mL) | – | – | – |
| c1ccc(CNCCC23CC4CC(CC(C4)C2)C3)cc1 [B104] | 55 (≈ 14.8 µg/mL) | > 150 | 91 (≈ 24.5 µg/mL) | > 150 | – | – | – |
| CC(CC1CCCCC1)NCc1ccccc1OCCN1CCOCC1 (stereo not shown) [B250] | > 150 | > 150 | – | – | 12 (≈ 4.33 µg/mL) | > 150 | – |
